The target of the experiment is T1, human NTCP (Homo sapiens, UniProt Q14973).
T1 sequence (Q14973 1-349): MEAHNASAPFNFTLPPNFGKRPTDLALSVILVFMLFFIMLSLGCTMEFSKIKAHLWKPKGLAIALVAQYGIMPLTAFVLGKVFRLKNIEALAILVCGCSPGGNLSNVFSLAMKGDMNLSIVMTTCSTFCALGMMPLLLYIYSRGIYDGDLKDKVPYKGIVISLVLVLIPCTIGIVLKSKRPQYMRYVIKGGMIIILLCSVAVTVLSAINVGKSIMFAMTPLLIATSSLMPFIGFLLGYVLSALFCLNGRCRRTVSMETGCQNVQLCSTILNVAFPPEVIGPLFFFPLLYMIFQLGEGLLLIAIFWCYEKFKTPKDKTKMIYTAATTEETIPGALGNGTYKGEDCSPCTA
Briefly: Screening taurocholate uptake assay (96-well, [14C]taurocholate, 10 µM drug). The settings on record: for B-score functional assay: screening taurocholate uptake, 10 µM drug.

[1] abbreviates: ranking over the functional and the binding screening assay.
The mark [2] stands for this setting: combined ranking of functional and binding screening assays.

Structures can show the parent of a compound that is named as a salt.

`CNC(=O)Oc1ccc2c(c1)[C@]1(C)CCN(C)[C@@H]1N2C` [Eserine hemisulfate salt] had a B-score functional assay of -0.074. Under setting [1], this compound yielded a Ranking score of 269.255.

`CC1(C)S[C@@H]2[C@H](NC(=O)[C@H](C(=O)O)c3ccsc3)C(=O)N2[C@H]1C(=O)O` [Ticarcillin sodium] had a B-score functional assay of -0.726. The compound further gave a Ranking score under setting [1] of 110.132.

`Cc1cccc(C)c1NC(=O)C1CCCCN1C` (centres unmarked) [Mepivacaine hydrochloride] registered a B-score functional assay of -0.918. Further, the Ranking score under setting [1] was 206.427.

In turn, `CC(C)N1CCN(c2ccc(OCC3COC(Cn4cncn4)(c4ccc(Cl)cc4Cl)O3)cc2)CC1` (centres unmarked) [Terconazole] came in with a B-score functional assay of -0.057. Moreover, the Ranking score under setting [2] was 502.144.

Turning to `CCN(CC)CCNC(=O)c1cc(Cl)c(N)cc1OC.Cl` [Metoclopramide monohydrochloride], the Ranking score under setting [2] was 1141.61. For the setting “B-score”, this compound returned a B-score functional assay of 0.859.

`Oc1ccc(OCc2ccccc2)cc1` [Monobenzone]: the B-score functional assay is recorded as -0.057. Further, the Ranking score under setting [2] is on record as 560.227.

`CCCCCCCCCCCCCCCC[N+](C)(C)CCN(Cc1ccc(OC)cc1)c1ncccn1` [Thonzonium bromide] displayed a B-score functional assay of -2.235. The Ranking score under setting [1] was 50.5173.

`Nc1nc2[nH]cc(CCc3ccc(C(=O)N[C@@H](CCC(=O)O)C(=O)O)cc3)c2c(=O)[nH]1` [Pemetrexed disodium] showed a B-score functional assay of -1.364. Under setting [1], this compound had a Ranking score of 234.359.

Turning to `CN1[C@@H]2CC(OC(=O)[C@H](CO)c3ccccc3)C[C@H]1[C@@H]1O[C@@H]12.Cl` (some centres unmarked) [Scopolamine hydrochloride], the B-score functional assay was 0.343. Moreover, the Ranking score under setting [2] was found to be 577.314.

With `COc1cc(C(=O)NCc2ccc(OCCN(C)C)cc2)cc(OC)c1OC` [Trimethobenzamide hydrochloride], the Ranking score under setting [2] was determined as 1250.5. In addition, under “B-score”, the B-score functional assay is given as 2.997.

Consider `CSc1ccc2c(c1)N(CCC1CCCCN1C)c1ccccc1S2` (centres unmarked) [Thioridazine hydrochloride], for which the B-score functional assay turned out to be 0.02. This compound came in with a Ranking score under setting [1] of 203.814.

`Cc1c(NC(C)C)c(=O)n(-c2ccccc2)n1C.Cl` [Isopyrin hydrochloride] gave a B-score functional assay of -3.076. Moreover, the Ranking score under setting [1] came to 209.153.

`CC(=O)Oc1ccccc1C(=O)Nc1ncc([N+](=O)[O-])s1` [Nitazoxanide] gave a B-score functional assay of -2.727. The compound further registered a Ranking score under setting [1] of 189.082.

The compound `CCN(CC)CCNc1ccc(CO)c2sc3ccccc3c(=O)c12` [Hycanthone] had a B-score functional assay of -0.266. Moreover, the Ranking score under setting [2] is listed as 491.684.

Regarding `CC(=O)O[C@H]1C[C@H](O[C@H]2[C@@H](O)C[C@H](O[C@H]3[C@@H](O)C[C@H](O[C@H]4CC[C@@]5(C)[C@H](CC[C@@H]6[C@@H]5C[C@@H](O)[C@]5(C)[C@@H](C7=CC(=O)OC7)CC[C@]65O)C4)O[C@@H]3C)O[C@@H]2C)O[C@H](C)[C@H]1O[C@@H]1O[C@H](CO)[C@@H](O)[C@H](O)[C@H]1O` [Lanatoside C], the B-score functional assay was -0.511. Under setting [2], the Ranking score is given as 583.598.

Turning to `CNCC(O)c1ccc(O)cc1` (racemic) [(+,-)-Synephrine], the B-score functional assay is listed as -0.397. Also, the Ranking score under setting [2] turned out to be 485.351.

`CCCCCN(C)CCC(O)(P(=O)([O-])O)P(=O)(O)O.[Na+]` [Ibandronate sodium] showed a B-score functional assay of 0.015. Also, the Ranking score under setting [1] stood at 183.606.

In turn, `CCCC(C(=O)OCCN(CC)CC)(c1ccccc1)c1ccccc1` [Proadifen hydrochloride] came in with a B-score functional assay of -1.354. Moreover, the Ranking score under setting [2] is reported as 468.828.

For the compound `CC(CCc1ccccc1)NCC(O)c1ccc(O)c(C(N)=O)c1` (centres unmarked) [Labetalol hydrochloride], the B-score functional assay amounted to 2.094. Besides, the Ranking score under setting [2] amounted to 596.712.

`CCOC(=O)O[C@]1(C(=O)OCCl)CC[C@H]2[C@@H]3CCC4=CC(=O)C=C[C@]4(C)[C@H]3[C@@H](O)C[C@@]21C` [Loteprednol etabonate] yielded a B-score functional assay of -2.765. Under setting [1], this compound had a Ranking score of 211.225.

`CCN(CC)CCOC(=O)C(c1ccccc1)C1CCCCC1` (centres unmarked) [Drofenine hydrochloride] showed a B-score functional assay of -0.177. Under setting [2], the Ranking score amounted to 532.5.

For the compound `CC[N+](CC)(CC(=O)Nc1c(C)cccc1C)Cc1ccccc1` [Denatonium benzoate], the B-score functional assay is on record as -0.069. In addition, the Ranking score under setting [2] was 531.85.

Regarding `CCCCC1(COC(=O)CCC(=O)O)C(=O)N(c2ccccc2)N(c2ccccc2)C1=O` [Suxibuzone], the Ranking score under setting [2] was determined as 1138. For the setting “B-score”, this compound registered a B-score functional assay of 1.433.

In turn, `C[C@]12CC[C@@H]3c4ccc(OC(=O)N(CCCl)CCCl)cc4CC[C@H]3[C@@H]1CC[C@@H]2O` [Estramustine] returned a B-score functional assay of -1.527. Under setting [1], this compound had a Ranking score of 134.744.

`CCCCN1CCCCC1C(=O)Nc1c(C)cccc1C` (centres unmarked) [Bupivacaine hydrochloride]: the B-score functional assay is given as -1.136. Under setting [1], the Ranking score turned out to be 231.991.

In turn, `CCOCCn1c(N2CCCN(C)CC2)nc2ccccc21` [Emedastine] came in with a B-score functional assay of -0.5. In addition, the Ranking score under setting [2] was found to be 501.772.

Consider `CN(C)CCOC(=O)C(c1ccccc1)C1(O)CCCC1` (centres unmarked) [Cyclopentolate hydrochloride], for which the B-score functional assay is reported as -0.521. The Ranking score under setting [2] is on record as 624.063.

In turn, `CO[C@H]1/C=C/O[C@@]2(C)Oc3c(C)c(O)c4c(O)c(c(/C=N/N5CCN(C6CCCC6)CC5)c(O)c4c3C2=O)NC(=O)/C(C)=C\C=C\[C@H](C)[C@H](O)[C@@H](C)[C@@H](O)[C@@H](C)[C@H](OC(C)=O)[C@@H]1C` [Rifapentine] had a B-score functional assay of 0.477. Moreover, the Ranking score under setting [1] stood at 220.209.

Turning to `COC(=O)Nc1nc2ccc(Sc3ccccc3)cc2[nH]1` [Fenbendazole], under setting [2], the Ranking score came out at 1220.76. For the setting “B-score”, the B-score functional assay was determined as 1.989.

As for `CCC1(c2cccc(O)c2)CCCCN(C)C1` (centres unmarked) [Meptazinol hydrochloride], the B-score functional assay is -1.3. Moreover, the Ranking score under setting [2] worked out at 474.66.

Regarding `CN1CCN2c3ncccc3Cc3ccccc3C2C1` (centres unmarked) [Mirtazapine], the B-score functional assay came to 0.174. In addition, the Ranking score under setting [2] was determined as 576.426.

`CC[C@H](c1ccc(O)cc1)[C@@H](CC)c1ccc(O)cc1` [Hexestrol] had a B-score functional assay of -5.763. The same compound showed a Ranking score under setting [1] of 43.1277.

The compound `O.O=C1C(O)=C(O)C(=O)C(O)=C1O` [Tetrahydroxy-1,4-quinone hydrate] had a B-score functional assay of -0.017. Also, under setting [2], the Ranking score was determined as 603.838.

Take `O=C(C1CCCCC1)N1CC(=O)N2CCc3ccccc3C2C1` (centres unmarked) [Praziquantel]: the B-score functional assay is listed as -0.749. This compound registered a Ranking score under setting [1] of 262.237.

The compound `O=C1CC2(CCCC2)CC(=O)N1CCCCN1CCN(c2ncccn2)CC1` [Buspirone hydrochloride] showed a B-score functional assay of -0.772. Further, the Ranking score under setting [1] is listed as 215.998.

The compound `O=C(O)CCCc1ccc(N(CCCl)CCCl)cc1` [Chlorambucil] yielded a B-score functional assay of -1.869. The Ranking score under setting [1] is given as 169.183.

For `Clc1cccc(Cl)c1N=C1NCCN1` [Clonidine hydrochloride], the B-score functional assay was 0.689. Further, the Ranking score under setting [2] worked out at 587.566.

With `CC#C[C@]1(O)CC[C@H]2[C@@H]3CCC4=CC(=O)CCC4=C3[C@@H](c3ccc(N(C)C)cc3)C[C@@]21C` [Mifepristone], the B-score functional assay is recorded as -2.267. The compound further had a Ranking score under setting [1] of 246.499.

The compound `COc1cc(N)c(Cl)cc1C(=O)NC1CCN(CCCOc2ccc(F)cc2)CC1OC` (centres unmarked) [Cisapride] displayed a B-score functional assay of -0.847. Under setting [1], this compound yielded a Ranking score of 235.1.

As to `C#CCN(C)CCCOc1ccc(Cl)cc1Cl` [Clorgyline hydrochloride], the B-score functional assay came to 0.335. The Ranking score under setting [2] worked out at 645.563.

`CC[C@H](C)C(=O)O[C@H]1C[C@H](O)C=C2C=C[C@H](C)[C@H](CC[C@@H](O)C[C@@H](O)CC(=O)O)[C@H]21` [Pravastatin] registered a B-score functional assay of -3.481. Besides, the Ranking score under setting [1] was found to be 245.632.

Turning to `CC(=O)OCC(CCn1cnc2cnc(N)nc21)COC(C)=O` [Famciclovir], the B-score functional assay is reported as 0.016. Under setting [2], the Ranking score came out at 539.09.

The compound `CC1(C)S[C@@H]2[C@H](NC(=O)[C@H](N)c3ccccc3)C(=O)N2[C@H]1C(=O)O` [Ampicillin trihydrate] had a B-score functional assay of -0.594. This compound yielded a Ranking score under setting [1] of 199.178.

Take `C#C[C@]1(O)CC[C@H]2[C@@H]3CCC4=CC(=O)CC[C@@H]4[C@H]3CC[C@@]21C` [Norethindrone]: the B-score functional assay is -0.48. The Ranking score under setting [1] is 274.683.

As for `CC(C)(O/N=C(\C(=O)N[C@@H]1C(=O)N2C(C(=O)[O-])=C(C[n+]3ccccc3)CS[C@H]12)c1csc(N)n1)C(=O)O` [Ceftazidime pentahydrate], the B-score functional assay is on record as -1.028. In addition, under setting [2], the Ranking score came to 560.357.

Turning to `Cc1c(O)c(=O)n(-c2ccccc2)n1C` [Antipyrine, 4-hydroxy], the B-score functional assay is -1.78. Further, the Ranking score under setting [1] turned out to be 262.114.

The values are drawn from article PMC5681660, “Reduced hepatitis B and D viral entry using clinically applied drugs as novel inhibitors of the bile acid transporter NTCP” (Scientific Reports, 2017).
